Data reported in ChEMBL document CHEMBL4699480 (J Med Chem, 2020).
Active and inactive are the calls of the source. The rule behind the calls is not given here.

Assays:
[1] = Inhibition of N-terminal His9-tagged Methanocaldococcus jannaschii DSM 2661 AglH incubated for 2 hrs using UDP-GlcN-Cg-FITC and alpha-dihydroundecap-renyl phosphate by reversed-phase HPLC analysis
[2] = Inhibition of Escherichia coli WecA incubated for 2 hrs using UDP-Glucosamine-C6-FITC substrate by reversed-phase HPLC analysis; parameters: species or system Escherichia coli BL21
[3] = Inhibition of N-terminal 6x-His-tagged Hydrogenivirga-sp. 128-5-R1-1 MraY expressed in Escherichia coli NiCo21(DE3) incubated for 2 hrs by reversed-phase HPLC analysis
[4] = molecular target: T1, UDP-N-acetylglucosamine--dolichyl-phosphate N-acetylglucosaminephosphotransferase (Homo sapiens, UniProt Q9H3H5); experiment: Inhibition of human DPAGT1 expressed in HEK293 (Expi293) cells incubated for 2 hrs using UDP-GlcN-Cg-FITC and alpha-dihydroundecap-renyl phosphate by reversed-phase HPLC analysis; type: cell-based
T1 sequence (Q9H3H5 whole entry): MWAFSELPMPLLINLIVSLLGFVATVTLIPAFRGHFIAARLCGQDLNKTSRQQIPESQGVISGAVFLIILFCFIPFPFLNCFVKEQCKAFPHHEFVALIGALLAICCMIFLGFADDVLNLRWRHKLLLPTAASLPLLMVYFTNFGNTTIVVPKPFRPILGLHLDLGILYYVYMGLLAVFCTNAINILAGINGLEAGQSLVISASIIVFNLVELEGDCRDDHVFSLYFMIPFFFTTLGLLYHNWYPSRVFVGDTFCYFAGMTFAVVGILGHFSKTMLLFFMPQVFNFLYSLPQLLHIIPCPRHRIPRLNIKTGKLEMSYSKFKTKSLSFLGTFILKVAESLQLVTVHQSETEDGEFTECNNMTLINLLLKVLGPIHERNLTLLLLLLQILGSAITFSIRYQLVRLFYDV

[5] = Inhibition of Mycobacterium tuberculosis WecA
[6] = system: PANC-1; experiment: Cytotoxicity in human PANC-1 cells assessed as reduction in cell viability incubated for 72 hrs by MTT assay; type: functional, cell-based; conditions: PANC-1, 72 h
[7] = Inhibition of Mycobacterium tuberculosis WecA by fluorescence based assay
[8] = Cytotoxicity in human hTERT-HPNE cells assessed as reduction in cell viability incubated for 72 hrs by MTT assay; type: cell-based
[9] = Cytotoxicity in human PD002 cells assessed as reduction in cell viability incubated for 72 hrs by MTT assay; type: functional, cell-based; conditions: PD002, 72 h
[10] = system: ASPC1; experiment: Cytotoxicity in human ASPC1 cells assessed as reduction in cell viability incubated for 72 hrs by MTT assay; type: functional, cell-based; conditions: ASPC1, 72 h
[11] = system: Vero; experiment: Cytotoxicity in African green monkey Vero cells assessed as reduction in cell viability incubated for 72 hrs by MTT assay; type: cell-based; conditions: Chlorocebus sabaeus
[12] = system: HCT-116; experiment: Cytotoxicity in human HCT-116 cells assessed as reduction in cell viability incubated for 72 hrs by MTT assay; type: functional, cell-based; conditions: HCT-116, 72 h
[13] = system: SiHa; experiment: Cytotoxicity in human SiHa cells assessed as reduction in cell viability incubated for 72 hrs by MTT assay; type: functional, cell-based
[14] = system: KB; experiment: Cytotoxicity in human KB cells assessed as reduction in cell viability incubated for 72 hrs by MTT assay; type: functional, cell-based
[15] = system: DLD-1; experiment: Cytotoxicity in human DLD-1 cells assessed as reduction in cell viability incubated for 72 hrs by MTT assay; type: functional, cell-based; conditions: DLD-1, 72 h
[16] = system: CAPAN-1; experiment: Cytotoxicity in human CAPAN-1 cells assessed as reduction in cell viability incubated for 72 hrs by MTT assay; type: functional, cell-based; conditions: CAPAN-1, 72 h
[17] = Cytotoxicity in mouse L1210 cells assessed as reduction in cell viability incubated for 72 hrs by MTT assay; conditions: L1210, 72 h
[18] = system: PD002; experiment: Inhibition of cell migration in human PD002 cells at 0.1 uM incubated for 0.5 hrs by crystal violet staining based Boyden chamber assay; type: functional

Row | SMILES | IC50 [1] [µM] | IC50 [2] [µM] | IC50 [3] [µM] | IC50 [4] [µM] | also measured
1 | CO[C@@H]1[C@H](O)[C@@H]([C@@H](O[C@H]2OC(C(=O)N[C@H]3CCCCNC3=O)=C[C@H](O)[C@@H]2O)C(N)=O)O[C@H]1n1ccc(=O)[nH]c1=O | 20 | 30 | 8.5 | 11.5 | 
2 | CCCCc1ccc(NC(=O)C2=CCN(C)[C@@H]([C@H](O[C@@H]3O[C@H](CN)[C@@H](O)[C@H]3O)[C@H]3O[C@@H](n4ccc(=O)[nH]c4=O)[C@H](O)[C@@H]3O)C(=O)N2C)cc1 |  |  |  |  | IC50 [5]: 0.084 µM
3 | CO[C@H]1[C@@H](O)[C@H](n2ccc(=O)[nH]c2=O)O[C@@H]1[C@@H](O[C@H]1OC(CNCc2ccc(N3CCC(Oc4ccc(OC(F)(F)F)cc4)CC3)cc2)=C[C@H](O)[C@@H]1O)C(N)=O | > 50 | > 50 | > 50 | > 50 | 
4 | CO[C@H]1[C@@H](OC)[C@H](n2ccc(=O)[nH]c2=O)O[C@@H]1[C@@H](O[C@H]1OC(C(=O)N[C@H]2CCCCNC2=O)=C[C@H](O)[C@@H]1O)C(N)=O | 2.5 | 0.06 | > 50 | 4.5 | IC50 [6]: > 50 µM; IC50 [7]: 0.06 µM; IC50 [8]: > 50 µM; IC50 [9]: > 50 µM; IC50 [10]: > 50 µM; IC50 [11]: > 50 µM; IC50 [12]: > 50 µM; IC50 [13]: > 50 µM; IC50 [14]: > 50 µM; IC50 [15]: > 50 µM; IC50 [16]: > 50 µM; IC50 [17]: > 50 µM
5 | CO[C@H]1[C@@H](OC)[C@H](n2ccc(=O)[nH]c2=O)O[C@@H]1[C@@H](O[C@H]1OC(C(=O)NCc2ccc(N3CCC(Oc4ccc(OC(F)(F)F)cc4)CC3)cc2)=C[C@H](O)[C@@H]1O)C(N)=O | 30 | 10 | 5 | 20 | 
6 | CO[C@H]1[C@@H](O)[C@H](n2ccc(=O)[nH]c2=O)O[C@@H]1[C@@H](O[C@H]1OC(C(=O)N[C@H]2CCCCNC2=O)=C[C@H](O)[C@@H]1O)C(N)=O [CAPURAMYCIN] | > 50 | > 50 | 0.13 | > 50 | IC50 [6]: > 50 µM; IC50 [8]: > 50 µM; IC50 [9]: > 50 µM; IC50 [10]: > 50 µM; IC50 [11]: > 50 µM; IC50 [12]: > 50 µM; IC50 [13]: > 50 µM; IC50 [14]: > 50 µM; IC50 [15]: > 50 µM; IC50 [16]: > 50 µM; IC50 [17]: > 50 µM
7 | NC(=O)[C@H](O[C@H]1OC(C(=O)NCc2ccc(N3CCC(Oc4ccc(OC(F)(F)F)cc4)CC3)cc2)=C[C@H](O)[C@@H]1O)[C@H]1O[C@@H](n2ccc(=O)[nH]c2=O)[C@H](O)[C@@H]1O | > 50 | 30 | > 50 | > 50 | 
8 | CO[C@@H]1[C@H](O)[C@@H]([C@@H](O[C@H]2OC(C(=O)NCc3ccc(N4CCC(Oc5ccc(OC(F)(F)F)cc5)CC4)cc3)=C[C@H](O)[C@@H]2O)C(N)=O)O[C@H]1n1ccc(=O)[nH]c1=O | 15 | 20 | > 50 |  | IC50 [6]: 45 µM; IC50 [8]: > 50 µM; IC50 [9]: 50 µM; IC50 [10]: 30 µM; IC50 [11]: > 50 µM; IC50 [12]: 25 µM; IC50 [13]: 25 µM; IC50 [14]: 35 µM; IC50 [15]: 35 µM; IC50 [16]: 40 µM; IC50 [17]: > 50 µM
9 | Nc1ccn([C@@H]2O[C@H](CO)[C@@H](O)C2(F)F)c(=O)n1 |  |  |  |  | inhibition [18]: Active
10 | CO[C@@H]1[C@H](O)[C@@H]([C@@H](O[C@H]2OC(CNCc3ccc(N4CCC(Oc5ccc(OC(F)(F)F)cc5)CC4)cc3)=C[C@H](O)[C@@H]2O)C(N)=O)O[C@H]1n1ccc(=O)[nH]c1=O | > 50 | > 50 | > 50 | > 50 | 
11 | NC[C@H]1O[C@@H](O[C@H]([C@H]2O[C@@H](n3ccc(=O)[nH]c3=O)[C@H](O)[C@@H]2O)[C@H](NCCCC(=O)NCc2ccc(N3CCC(Oc4ccc(OC(F)(F)F)cc4)CC3)cc2)C(N)=O)[C@H](O)[C@@H]1O | 0.01 | 0.01 | 0.01 | 0.01 | 
12 | NC(=O)[C@H](O[C@H]1OC(C(=O)N[C@H]2CCCCNC2=O)=C[C@H](O)[C@@H]1O)[C@H]1O[C@@H](n2ccc(=O)[nH]c2=O)[C@H](O)[C@@H]1O | > 50 | 35 | > 50 | > 50 | 
